# Data from BindingDB's records for doi:10.1021/acs.jmedchem.0c00961 (Rheinische Friedrich-Wilhelms-University Bonn, 2020).
# Columns and labels:
# [1] = Inhibition of human ABCG2-mediated multidrug resistance in MDCK2 cells assessed as potentiation of SN-38-induced cytotoxicity by measuring half maximal reversal concentration after 72 hrs by MTT assay
# [2] = Inhibition of human ABCC1-mediated multidrug resistance in MDCK2 cells assessed as potentiation of doxorubicin-induced cytotoxicity by measuring half maximal reversal concentration after 72 hrs by MTT assay
# [3] = Inhibition of human ABCB1-mediated multidrug resistance in human A2780/ADR cells assessed as potentiation of doxorubicin-induced cytotoxicity by measuring half maximal reversal concentration after 72 hrs by MTT assay
SMILES,EC50 [1] [nM],EC50 [2] [nM],EC50 [3] [nM]
Cc1cc(Nc2ccc(C#N)c(C)c2)nc(-c2ccccc2)n1,11,–,–
Cc1cc(Nc2ccc([N+](=O)[O-])cc2)nc(-c2ccccc2)n1,16,–,–
Cc1cc(Nc2ccc(F)c(C#N)c2)nc(-c2ccccc2)n1,21,–,–
Cc1cc(Nc2ccc(C#N)c(Br)c2)nc(-c2ccccc2)n1,15,–,–
Cc1cc(Nc2ccc(C#N)c(C(F)(F)F)c2)nc(-c2ccccc2)n1,15,–,–
Cc1cc(Nc2ccc3ncccc3c2)nc(-c2ccccc2)n1,16,5150,8410
